Measurements as given in patent US20140106967A1, “AUXIN PLANT GROWTH REGULATORS” (The Governors of The University of Alberta, priority 2011, published 2014).

Tested on: canola cv. Peace
Experiment: Greenhouse canola study, foliar auxin spray at green bud stage, with or without heat stress (Tables C1-C4)
Type: in vivo, Brassica napus
Conditions: for % pod set / Seed yield / Total number of flowers / Total number of pods with developing seeds / Total number of racemes / Total number undeveloped pods: heat stress 33° C. 6 h/day, 6 days (Table C2); for % pod set per plant / Seed yield (g) per plant / Total number of flowers per plant / Total number of pods with developing seeds per plant / Total number of racemes per plant / Total number undeveloped pods per plant: non-heat stress (Table C1)
Description: Canola seeds (Brassica napus) from the cultivar Peace were planted at an approximate depth of 1 cm in 5 inch square plastic pots (6 inch pot depth; 4 seeds per pot) in 1:1 Sunshine #4 potting mix (Sun Gro Horticulture, Vancouver, Canada) and sand. The seedlings were thinned to one seedling per pot approximately 2 weeks after seeding. Plants were grown at the University of Alberta in a greenhouse from Nov. 14, 2011 to Mar. 5, 2012. The average temperature was approximately 18° C. day/16° C. night (Nov. 14, 2011 to Feb. 8, 2012) then 21° C. day/19° C. night from Feb. 8 to Mar. 5, 2012. The plants also received supplemental lighting daily (average photon flux density of 250 μE m^−2s^−2) for 16 hours per day (from 6 am to 10 pm).
The auxins, 4-methyl-indole-3-acetic acid (4-ME-IAA) or 4-chloro-indole-3-acetic acid (4-Cl-IAA) at 1×10^−7, 1×10^−6, 1×10^−5, or 1×10^−4M in aqueous 0.1% (v/v) Tween 80 or a control solution (aqueous 0.1% [v/v] Tween 80) were applied one time as a foliar spray to canola plants at the green bud stage (BBCH scale 51; prior to bolting when flower buds are visible from above, but they are tightly clustered and have not extended above smallest leaves surrounding the inflorescence). The experiment was arranged in a completely randomized design in the greenhouse.
The heat stress treatment was imposed by moving plants to receive the heat stress from the greenhouse into a growth chamber for 6 days. The light cycle began at 7:00 hours at a 19° C. air temperature. The heat treatment began at 11:00 hours (33° C. air temperature) and was maintained for 6 hours (until 17:00 hours). Following the heat treatment, the remainder of the light cycle was maintained at a 22° C. air temperature. The dark cycle (began at 23:00 hours) was maintained at 17° C. The photoperiod was 16 h light/8 h dark at an average photon flux density of 492 μE m^−2s^−2 using 54W/835/HO high fluorescent bulbs, Phillips, Holland. This heat treatment cycle was imposed for 6 days. The plants were returned to the greenhouse after the heat stress treatment to develop to maturity.

Cc1cccc2[nH]cc(CC(=O)O)c12 [4-ME-IAA, 4-methyl-indole-3-acetic acid]
leaf epinasty (1×10^−4 M, 24 hours after treatment, milder under heat stress): leaf epinasty was observed
% pod set (1×10^−4 M): 60 ± 1%
Seed yield (1×10^−4 M): 6.0 ± 1.0 g
Total number of flowers (1×10^−4 M): 326 ± 34
Total number of pods with developing seeds (1×10^−4 M): 196 ± 19
Total number of racemes (1×10^−4 M): 12 ± 1
Total number undeveloped pods (1×10^−4 M): 34 ± 10
% pod set per plant (1×10^−4 M): 57 ± 2%
Seed yield (g) per plant (1×10^−4 M): 4.9 ± 0.4 g
Total number of flowers per plant (1×10^−4 M): 261 ± 14
Total number of pods with developing seeds per plant (1×10^−4 M): 148 ± 9
Total number of racemes per plant (1×10^−4 M): 11 ± 1
Total number undeveloped pods per plant (1×10^−4 M): 16 ± 2
increase in total number of flowers per plant vs control (1×10^−5 M, heat stress): 43%
increase in total number of racemes per plant vs control (1×10^−5 M, heat stress): 38%
% pod set (1×10^−5 M): 50 ± 2%
Seed yield (1×10^−5 M): 5.9 ± 1.2 g
Total number of flowers (1×10^−5 M): 520 ± 102
Total number of pods with developing seeds (1×10^−5 M): 259 ± 55
Total number of racemes (1×10^−5 M): 18 ± 2
Total number undeveloped pods (1×10^−5 M): 64 ± 13
% pod set per plant (1×10^−5 M): 62 ± 5%
Seed yield (g) per plant (1×10^−5 M): 5.7 ± 0.7 g
Total number of flowers per plant (1×10^−5 M): 265 ± 14
Total number of pods with developing seeds per plant (1×10^−5 M): 165 ± 18
Total number of racemes per plant (1×10^−5 M): 10 ± 0
Total number undeveloped pods per plant (1×10^−5 M): 22 ± 6
% pod set (1×10^−6 M): 44 ± 7%
Total number of flowers (1×10^−6 M): 435 ± 89
Total number of pods with developing seeds (1×10^−6 M): 167 ± 15
Total number of racemes (1×10^−6 M): 13 ± 2
Total number undeveloped pods (1×10^−6 M): 71 ± 37
% pod set per plant (1×10^−6 M): 62 ± 3%
Total number of flowers per plant (1×10^−6 M): 250 ± 21
Total number of pods with developing seeds per plant (1×10^−6 M): 155 ± 16
Total number of racemes per plant (1×10^−6 M): 10 ± 1
Total number undeveloped pods per plant (1×10^−6 M): 17 ± 5
% pod set (1×10^−7 M): 52 ± 4%
Seed yield (1×10^−7 M): 5.4 ± 0.9 g
Total number of flowers (1×10^−7 M): 418 ± 25
Total number of pods with developing seeds (1×10^−7 M): 213 ± 6
Total number of racemes (1×10^−7 M): 14 ± 1
Total number undeveloped pods (1×10^−7 M): 50 ± 26
increase in total number of pods with developing seeds per plant vs control (1×10^−7 M, heat stress (6 hours at 33° C. per day for 6 days)): 13%
increase in seed yield vs control (1×10^−7 M, non-heat stress): 22%
increase in total number of pods with developing seeds per plant vs control (1×10^−7 M, non-heat stress): 10%
% pod set per plant (1×10^−7 M): 66 ± 1%
Seed yield (g) per plant (1×10^−7 M): 5.5 ± 0.4 g
Total number of flowers per plant (1×10^−7 M): 256 ± 12
Total number of pods with developing seeds per plant (1×10^−7 M): 170 ± 7
Total number of racemes per plant (1×10^−7 M): 10 ± 1
Total number undeveloped pods per plant (1×10^−7 M): 17 ± 3
